Results as given in PMC13242511, “Disrupting Notch signalling by a small molecule inhibiting dihydroorotate dehydrogenase activity” (Scientific Reports, 2026).

Assays:
Type in all cases: cell-based
[1] = target: γ-secretase complex (Homo sapiens, UniProt P49768); experiment: APP-C99 counter assay (GSI reporter assay); details: for 3p-DR in % of DMSO counter: APP-C99 counter assay
Procedure, shortened: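 Cells transfected with APP-C99 firefly luciferase reporter plus renilla normalization plasmid, seeded 24 h later onto compound plates and cultured 24 h. Dual luciferase read in triplicate per concentration; IC50 from variable-slope log(inhibitor) fit, with AUC also calculated from dose–response curves.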

[2] = system: Notch signalling; experiment: Notch reporter assay (12xCSL firefly luciferase / renilla luciferase, HEK293T Notch1ΔE reporter cell line clone #A1-11); details: 24 h, unit from Fig. 2 legend
[3] = system: Notch signalling; experiment: as above; design: Confirmation screen: unit not given here; details: for inhibitor ratio in % of DMSO in 3 point DR: 3-point DR confirmation screen, Notch reporter assay
Procedure, shortened: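 Compounds at two-fold concentration in 10 µl medium were brought to one-fold by adding 10 µl holding 4000 Notch reporter cells (clone #A1-11) per well of a 384-well plate. After 24 h, Promega dual-GLO firefly and renilla luciferase were read on a SpectraMaxi3. Dose-response curves were fitted with a log(inhibitor) vs. response variable-slope model.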

[4] = 10 µM, sheet conf vs counter 10 µM
[5] = 25 µM, sheet "conf vs counter 25 µM", same values given as % of DMSO in sheet "3p-DR in % of DMSO counter"
[6] = 10 µM, sheet conf vs counter 10 µM, same values as 3-point DR confirmation screen
[7] = 25 µM, Notch reporter 3-point dose-confirmation assay, sheet "conf vs counter 25 µM"

| Structure (SMILES) | 3p-DR in % of DMSO counter ([1]; 10µM) | Counter screen (Hek APP-C99) [1, 4] | 3p-DR in % of DMSO counter ([1]; 25µM) | Counter screen (Hek APP-C99) [1, 5] | 3p-DR in % of DMSO counter ([1]; 1,25µM) | Primary screen at 10 µM (Notch reporter signal) [2] | inhibitor ratio in % of DMSO in 3 point DR ([3]; 10µM) | Confirmation screen [3, 6] | inhibitor ratio in % of DMSO in 3 point DR ([3]; 25µM) | Confirmation screen [3, 7] | inhibitor ratio in % of DMSO in 3 point DR ([3]; 1,25µM) |
| --- | --- | --- | --- | --- | --- | --- | --- | --- | --- | --- | --- |
| NC(=O)c1[nH]nc(C2OC(CO)C(O)C2O)c1O (stereo not shown) [CBK201236] | 107.3 % of DMSO | 107.3 | 111.1 % of DMSO | 111.1 | 135.7 % of DMSO | 54.3 % of DMSO | 67.4 % of DMSO | 67.4 | 65.5 % of DMSO | 65.5 | 68.2 % of DMSO |
| NC(=O)c1c(NC(=S)NC(NC(=O)c2ccccc2)C(Cl)(Cl)Cl)sc2c1CCCC2 (stereo not shown) [CBK261048] | 72.6 % of DMSO | 72.6 | 66.8 % of DMSO | 66.8 | 111.1 % of DMSO | 67.0 % of DMSO | 66.7 % of DMSO | 66.7 | 49.9 % of DMSO | 49.9 | 102.1 % of DMSO |
| O=C(Nc1ccc(O)c(-c2nc3ccccc3o2)c1)c1ccc(-c2ccc([N+](=O)[O-])cc2)o1 [CBK263439] | 127.0 % of DMSO | 127.0 | 166.0 % of DMSO | 166.0 | 130.0 % of DMSO | 63.7 % of DMSO | 110.7 % of DMSO | 110.7 | 101.9 % of DMSO | 101.9 | 103.9 % of DMSO |
| O=C(NC(Nc1cccc(C(F)(F)F)c1)C(=O)c1ccccc1)c1ccc(Cl)cc1 (stereo not shown) [CBK263585] | 79.4 % of DMSO | 79.4 | 84.5 % of DMSO | 84.5 | 97.7 % of DMSO | 61.4 % of DMSO | 59.9 % of DMSO | 59.9 | 46.6 % of DMSO | 46.6 | 104.0 % of DMSO |
| COc1ccc(N(CC(O)CN2CCOCC2)S(=O)(=O)c2ccccc2)cc1 (stereo not shown) [CBK263589] | 81.1 % of DMSO | 81.1 | 76.7 % of DMSO | 76.7 | 74.5 % of DMSO | 69.0 % of DMSO | 96.3 % of DMSO | 96.3 | 100.1 % of DMSO | 100.1 | 103.6 % of DMSO |
| O=C(Nc1sccc1C(=O)N1CCOCC1)C(Sc1ccccc1)c1ccccc1 (stereo not shown) [CBK268165] | 58.6 % of DMSO | 58.6 | 58.2 % of DMSO | 58.2 | 84.7 % of DMSO | 64.8 % of DMSO | 60.1 % of DMSO | 60.1 | 57.1 % of DMSO | 57.1 | 101.2 % of DMSO |
| COc1ccc2cc(C(=O)N3CCC(c4ccncc4)CC3)[nH]c2c1 [CBK283799] | 49.5 % of DMSO | 49.5 | 70.8 % of DMSO | 70.8 | 72.9 % of DMSO | 60.5 % of DMSO | 56.5 % of DMSO | 56.5 | 73.6 % of DMSO | 73.6 | 82.5 % of DMSO |
| c1ccc2c(c1)CCN(c1nc3cc4c(cc3s1)OCCO4)C2 [CBK287498] | 45.9 % of DMSO | 45.9 | 37.5 % of DMSO | 37.5 | 59.5 % of DMSO | 36.8 % of DMSO | 38.9 % of DMSO | 38.9 | 27.1 % of DMSO | 27.1 | 48.5 % of DMSO |
